Experimental findings from patent publication US9234200B2, “Oligonucleotide, glucocorticoid sensitivity enhancer, pharmaceutical composition, and expression vector” (National University Corporation Tokyo University of …, priority 2011, dated 2016) are described below.

Data set [1] concerns Raji cells. The experiment in a line: BrdU incorporation assay, glucocorticoid sensitivity of oligonucleotide 4-expressing Raji cells. In kind it is cell-based, human. Here is the method: In order to examine the glucocorticoid sensitivity of the oligonucleotide 4-expressin Raji cells, BrdU incorporation assay was performed in the same manner as in Example 2, and cell proliferation was quantified. The concentration of dexamethasone was set to 0 μM (no addition) or 5 μM. Each experiment was repeated in triplicate. The values shown in Table 13 are average of thereof.

Data set [2] relates to Raji cells. Nature of the data set: BrdU incorporation assay, glucocorticoid sensitivity of oligonucleotide-transfected Raji cells. In kind it is cell-based, human. The settings on record: quadruplicate (Table 7), label dexamethasone = no oligonucleotide transfected. The method, then:
In order to examine the change of glucocorticoid sensitivity of cells caused by introduction of oligonucleotide 1, cell proliferation was quantified by a 5-bromo-2′-deoxyuridine (BrdU) incorporation assay. Dexamethasone (manufactured by Biomol) was used as a glucocorticoid. The concentration of dexamethasone was set to varied concentrations of 0 μM (no addition), 0.1 μM, 0.5 μM, 1 μM, 5 μM, and 10 μM.
Raji cells were cultured in serum-free RPMI1640 medium for 12 hours to synchronize the cell cycle, and then re-suspended in RPMI1640 medium supplemented with serum and inoculated onto a 96-well plate.
After dexamethasone was added, the cells were cultured for 22 hours. Then, BrdU was added thereto, and the cells were cultured for another 2 hours. After centrifugation, the supernatant was discarded, and the cells were dried and fixed. The fixed cells were allowed to react with a peroxidase-labeled anti-BrdU antibody for 1 hour at room temperature. Subsequently, the cells were washed three times with PBS, and tetramethylbenzidine was added thereto. When noticeable coloring was observed, the reaction was stopped by adding H2SO4 (1M). After vigorous agitation, absorbance at 450 nm was measured using a plate reader.
Using the Raji cells to which dexamethasone was not added as a control, cell proliferation inhibitory rate (%) was calculated based on the relative ratio of the obtained absorbance. Here, statistical significance was assessed with one-way analysis of variance and multiple comparison. Tukey's multiple comparison was used for the multiple comparison. A significance level of P<0.05 (vs. no addition of oligonucleotide) was regarded as a significant difference.
BrdU incorporation assay was performed in the same manner as in the above, and alternation of the glucocorticoid sensitivity of the cells caused by the introduction of any one of oligonucleotides 2 to 5 was examined. Each experiment was carried out in quadruplicate. The values shown in Table 7 are average values thereof.

In data set [3] the test system is GRα and GRβ. The experiment in a line: GRα and GRβ expression levels in Raji cells transfected with oligonucleotide (RT-PCR and PCR).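 For GAPDH: mean of three independent experiments.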 In kind it is cell-based, human. The method, then:
Raji cells (manufactured by Japan Health Science Foundation) derived from human Burkitt's lymphoma were used in experiments.
Raji cells were cultured and maintained in RPMI1640 medium (manufactured by Gibco) at 37° C. in an atmosphere of 5% CO2, the RPMI1640 medium being supplemented with 10% fetal bovine serum (FBS) (manufactured by Filtoron), 100 U/ml penicillin, and 100 μg/ml streptomycin.
2×10^6 Raji cells were washed with phosphate-buffered saline (PBS) and suspended in 100 μl transfection reagent of an Amaxa cell line Nucleofector Kit V (manufactured by Lonza).
After the Raji cells were cultured in the above-described medium for 24 hours, the Raji cells were used for subsequent experiments.
The expression level of glyceraldehyde-3-phosphate dehydrogenase (GAPDH) was determined as an endogenous control.
After the Raji cells were washed with PBS, RNA was extracted using a FastPure RNA Kit (manufactured by Takara Bio Inc.), and reverse transcription was performed using a PrimeScript 1st strand cDNA synthesis kit (manufactured by Takara Bio Inc.). The obtained cDNA was amplified using Platinum Taq DNA polymerase (manufactured by Invitrogen) and PCR primers (having the base sequences shown in Table 2) specific for the gene of interest. The PCR conditions included: performing initial denaturation at 94° C. for 2 minutes; performing 35 cycles of denaturation (94° C. for 30 seconds), annealing (55° C. for 30 seconds), and extension (72° C. for 1 minute); and then performing final extension at 72° C. for 4 minutes.
After the PCR was performed, DNA was separated by […] electrophoresis on a 2% agarose gel containing ethidium bromide, and the intensity of bands was quantified using an image analyzer GEL PRINT 2000i/VGA (manufactured by Genomic Solutions).

Data set [4] deals with GRα and GRβ. The experiment in a line: GRα and GRβ expression levels in oligonucleotide 4-expressing Raji cells.
Where [5] appears, read: expression level (band intensity), oligonucleotide 300 nM by electroporation, 24 h.
The mark [6] stands for this setting: Raji cells constitutively expressing oligonucleotide 4.
Where [7] appears, read: expression level (band intensity), Raji cells constitutively expressing oligonucleotide 4 (retrovirus vector).
[8] abbreviates: expression level (band intensity), Raji cells constitutively expressing oligonucleotide 4 (retrovirus vector), listed as oligonucleotide 4.

“Oligonucleotide 4: an oligonucleotide having a base sequence represented by SEQ ID NO: 4 (5′-TTTGTCCCCATTATATAGCATTT-3′) (listed as DNA, chemistry not given here)”: the BrdU incorporation in the data set on Raji cells [1] (absorbance, oligonucleotide 4-expressing Raji cell, dexamethasone 0 μM) is 1.13. The glucocorticoid sensitivity entry in the data set on Raji cells [1] (constitutive expression of oligonucleotide 4 in Raji cells, in words) is on record as “increases glucocorticoid sensitivity”. Further, the “cell proliferation inhibitory rate” value with Raji cells [2] (dexamethasone 0.1 μM) is on record as 12.464%; in the data set with Raji cells [2] (dexamethasone 0.5 μM), 23.397%; with Raji cells [2] (dexamethasone 1 μM), 28.863%; in the data set on Raji cells [2] (dexamethasone 5 μM) it was 28.061%. Further, the GAPDH in the data set on GRα and GRβ [3] (expression level (band intensity), endogenous control, oligonucleotide 300 nM by electroporation, 24 h) is 2991.776; in the data set with GRα and GRβ [4] (expression level (band intensity), endogenous control, Raji cells constitutively expressing oligonucleotide 4 (retrovirus vector)) it was 6428.135. The GRα is given as 3157.440 with GRα and GRβ [3] (setting [5]); 4803.456 in the data set with GRα and GRβ [4] (setting [7]); “increases the expression level of GRα” in the data set with GRα and GRβ [4] (setting [8]). Moreover, the GRβ is reported as 4592.806 with GRα and GRβ [3] (setting [5]); 1866.325 in the data set on GRα and GRβ [4] (setting [7]); “decreases the expression level of GRβ” with GRα and GRβ [4] (setting [8]). The GRα/GAPDH with GRα and GRβ [3] (oligonucleotide 300 nM) is given as 1.057; in the data set with GRα and GRβ [4] (setting [6]), 0.747. Moreover, the GRβ/GAPDH in the data set on GRα and GRβ [3] (oligonucleotide 300 nM) was 1.533; in the data set on GRα and GRβ [4] (setting [6]) it was 0.290.
